{"source": "patent US6972319B1", "about": "“Pituitary adenylate cyclase activating peptide (PACAP)receptor 3 (R3) agonists and their pharmacological methods of use” (priority 1999, dated 2005)", "key": {"PACAP-R2": {"biological_target": "T1, PACAP-R2 (Homo sapiens, UniProt P32241)", "T1 construct": "expressed in transfected cells; host or cells: CHO cells", "T1 sequence (P32241 31-457)": "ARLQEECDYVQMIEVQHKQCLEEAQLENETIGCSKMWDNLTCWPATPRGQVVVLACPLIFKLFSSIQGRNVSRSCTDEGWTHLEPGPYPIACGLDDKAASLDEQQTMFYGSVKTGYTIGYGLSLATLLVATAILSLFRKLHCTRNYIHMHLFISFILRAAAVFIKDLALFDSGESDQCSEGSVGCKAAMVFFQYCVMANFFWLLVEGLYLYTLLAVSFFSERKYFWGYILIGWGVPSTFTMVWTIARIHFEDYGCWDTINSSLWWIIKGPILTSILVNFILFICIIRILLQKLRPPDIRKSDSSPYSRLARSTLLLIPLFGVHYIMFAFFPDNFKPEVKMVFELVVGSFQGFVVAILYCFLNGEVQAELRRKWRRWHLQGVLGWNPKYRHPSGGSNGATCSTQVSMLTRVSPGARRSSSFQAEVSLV", "test": "Cyclic AMP SPA on CHO cells transfected with PACAP-R2", "format": "cell-based", "conditions": "concentration at which 50% of maximum PACAP27 activity is achieved, NA = no detectable activities", "how_it_was_run": "(§1)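 Receptor-transfected CHO cells are stimulated with peptide for 15 min at 37 C in the presence of phosphodiesterase inhibitor IBMX (100 uM), bacitracin and soybean trypsin inhibitor; cAMP is then read by scintillation proximity.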"}, "[1]": {"test": "Airway hyperresponsiveness in the primate acute asthma model", "format": "in vivo, cynomolgus monkeys (Macaca fascicularls)", "conditions": "for Delta log10 PC100, Mean, Treated: aerosol 10 minutes before Ascaris suum antigen challenge, +24 hr minus baseline, R3P0 0.6, R3P76 3.0, R3P82 1.8 ug/kg; for % Inhibition of induced AHR: treated vs control, R3P0 0.6, R3P76 3.0, R3P82 1.8 ug/kg by inhalation", "description": "Male cynomolgus monkeys (Macaca fascicularls) used in this study were maintained at constant temperature and humidity with a twelve hour light cycle. They were fed twice daily, except on an experimental day when food was withheld the night before the procedure. Water was available ad lib at all times.\nAirway hyperresponsiveness (AHR)(baseline) was measured 1 week before the control (no treatment) antigen challenge, and again 24 hrs after antigen challenge. Antigen-induced airway hyperresponsiveness was measured by a fall in the PC100 (the concentration of methacholine required to cause a 100% increase in lung resistance) at 24 hr compared to baseline. After 2 weeks rest, another baseline measurement of AHR was performed. One week later, peptides of this invention were administered as an aerosol, 10 minutes before antigen challenge. After 24 hrs, AHR was again measured, and the fall in PC100 with treatment was compared to that without treatment.\nExperimental Procedure. On each experimental day animals were anaesthetized with a ketamine/xylazine mixture (70:12 mg kg^−1 @ 0.1 ml kg^−1) while still in their cage. When unconscious they were brought into the primate laboratory where they were placed in a supine position on a heated water blanket on a trolley. Ophthalmic ointment was wiped onto each eye, and 0.2 ml lidocaine (2%,) sprayed onto the larynx and over the back of the throat. The Jaws were held apart by a jaw spreader and a cuffed 5.0 gauge endotracheal tube (with the end liberally smeared with xylocaine gel, 2%) was inserted with the aid of laryngoscope. The animal was then placed into a specially designed restraint chair such that the animal was in a slightly reclined but upright sitting position, secured only by a collar at the neck. A water-heated blanket surrounded the animal.\nThe endotracheal tube was connected to a Harvard Ventilator adjusted to deliver 30-35 breaths per minute. Airflow was measured by a Fleisch pneumotachograph and thoracic pressure was measured by a validyne pressure transducer (as the difference between the pressure at the distal end of the et tube and room pressure).\nThe pneumotachograph and validyne were connected to a pre-amplifier and then into an MI^2 respiratory analyser. […]\nAntigen challenge: This was an inhalation challenge with Ascaris suum. […] 30 breaths of antigen were administered after which the acute bronchoconstriction was monitored for 15 min. […]\nMethacholine challenge: Methacholine dose response curves were carried out to assess the airway hyperresponsiveness. In the acute model, this was measured at +24 hour and compared to the responsiveness 7 days before treatment. […] The aerosol was administered for 15 breaths and then lung resistance was monitored for ten minutes. […]"}, "PACAP-R3 [2]": {"biological_target": "T2, PACAP-R3 (Homo sapiens, UniProt P41587)", "T2 sequence (P41587 24-438)": "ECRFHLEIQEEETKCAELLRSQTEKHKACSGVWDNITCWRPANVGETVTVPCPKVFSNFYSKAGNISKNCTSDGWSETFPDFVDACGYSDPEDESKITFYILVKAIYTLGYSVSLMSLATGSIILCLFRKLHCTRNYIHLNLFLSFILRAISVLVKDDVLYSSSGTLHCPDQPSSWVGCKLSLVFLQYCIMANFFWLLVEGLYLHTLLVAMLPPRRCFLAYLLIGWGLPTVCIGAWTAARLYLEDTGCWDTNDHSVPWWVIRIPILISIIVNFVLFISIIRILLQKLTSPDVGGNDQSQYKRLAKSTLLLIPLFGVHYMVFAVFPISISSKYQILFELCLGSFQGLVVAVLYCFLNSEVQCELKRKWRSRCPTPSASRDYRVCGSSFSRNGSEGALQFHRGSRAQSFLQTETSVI", "test": "Cyclic AMP SPA on CHO cells expressing PACAP R3", "format": "cell-based", "design": "expressed in transfected cells; host or cells: CHO cells (Geneticin selection)", "conditions": "for R3 Selectivity: ratio of EC50 at R2 versus EC50 at R3", "how_it_was_run": "as §1"}, "[3]": {"test": "Intraperitoneal glucose tolerance test (IPGTT), plasma glucose in rats", "format": "in vivo, Wistar rats", "description": "Wistar rats are fasted overnight and then anesthetized with pentobarbital. The rats were eye-bled (zero time) and the peptide (in 1% human albumin) was injected into the tail vein. Five minutes later, 1 g/kg of glucose (in saline) was injected intraperitoneally, and the rats were eye-bled after 15, 30 and 60 minutes. Plasma glucose levels were determined using the Technicon Axon autoanalyzer, Bayer Diagnosics division of Bayer Corporation, Tarrytown N.Y., operated using Method No. SM4-2143F90“Glucose”.\nWistar rats were fasted overnight and then anesthetized with Pentobarbital. The rats were eye-bled (zero time) and the peptide (in 1% human albumin) was injected subcutaneously. Five minutes later, 1 g/kg of glucose (in saline) was injected intraperitoneally, and the rats were eye-bled after 30 minutes.\nPlasma glucose: Data are expressed as % of vehicle of plasma glucose area under the curve after IPGTT (1 g/kg glucose) after treatment with 1 nmol/kg dose of the peptide. […] The present inventors have shown for the first time that this is because the effects of R2 and R3 on glucose tend to cancel each other out. […] Therefore, R3-selectivity appears to be a desirable attribute for medicaments which are to be employed in achieving blood glucose reduction, for treatment of type 2 diabetes."}, "rat islets": {"tested_on": "rat islets", "test": "Insulin secretion by isolated rat islets", "format": "cell-based, Sprague-Dawley rats", "description": "Sprague Dawley rats (275-320 g) were used as the source of donor islets. Briefly, the pancreas was filled with 10 ml of cold reconstituted Liberase RI (Boehringer Manheim), harvested and incubated with additional 5 ml enzyme solution in water bath for 30 minutes. Tissue suspension was washed twice with cold 10% FBS/Hanks buffer (Gibco), resuspended in 8 ml 25% ficoll (Sigma) and then layered with 5 ml each of 23%, 20% and 11% ficoll. The islets in the 20% layer after centrifugation were removed, washed twice with cold 10% FBS/Hank buffer and resuspended in 10% FBS/RPMI 1640 media (Sigma).\nIslet insulin release: Rat islets were isolated from Sprague-Dawley rats as described in example 1 and treated with either vehicle or specified peptide (10 nM) for 2 hrs. Insulin concentration in the medium was measured with the Linco rat insulin RIA kit. Glucose concentration in the medium was 8 mM. The data are expressed as % of [insulin] in 8 mM glucose alone."}, "[4]": {"test": "Peptide-induced elevation of plasma insulin after IVGTT in rats", "format": "in vivo", "conditions": "one minute after IVGTT (0.4 g/kg glucose), 1 nmole/kg peptide i.v., Wistar rats", "description": "Wistar rats are fasted overnight (17 hrs) and then anesthetized with pentobarbital (0.1 ml/100 g BW). Glucose (0.4 g/kg dissolved in 1% human albumin-saline)+/−peptide (dissolved in 1% human albumin-saline) is injected intravenously into the tail vein. The rats are eye-bled 1 minute after the injection and 50-100 ul of the plasma are assayed for insulin level with the Linco RIA kit (Linco Research, Inc., St. Charles, Mo.).\nIn accordance with the protocol of example 2 above, overnight fasted Wistar rats were anesthetized with pentobarital; i.v. injected with glucose±peptide and eye bled after 1 minute. N=12 rats/group. […] The peptide or vehicle was given i.v. followed by a glucose load given i.p. in accordance with example 3. The plasma glucose was followed over the time period indicated.\nPlasma insulin: Data are expressed as % of plasma insulin one minute after IVGTT (0.4 g/kg glucose) with either saline, 0.1 nmol/kg P51, P55, P60, P66 or 1 nmole/kg of the other peptides in Wistar rats. Blood was drawn from the eye and insulin was measured with the rat insulin RIA kit (Linco Research, Inc., St. Charles, Mo.)."}, "PACAP-R3 [5]": {"biological_target": "T2, PACAP-R3", "conditions": "literature (Gourlet et al., Xia et al.); b170: over R1 and R2; cited from earlier work"}}, "note": "Like-named read-outs stand apart in the source and are kept apart here. No end group written: not given here."}
{"compound": "CC[C@H](C)[C@H](NC(=O)[C@@H](NC(=O)[C@H](CC(N)=O)NC(=O)[C@H](CC(C)C)NC(=O)[C@H](Cc1ccc(O)cc1)NC(=O)[C@H](Cc1c[nH]cn1)NC(=O)[C@H](CCCCN)NC(=O)[C@H](C)NC(=O)[C@H](C)NC(=O)[C@H](CC(C)C)NC(=O)[C@H](CCC(N)=O)NC(=O)[C@H](CCCCN)NC(=O)[C@H](CCCNC(=N)N)NC(=O)[C@H](CC(C)C)NC(=O)[C@H](CCCNC(=N)N)NC(=O)[C@@H](NC(=O)[C@H](Cc1ccc(O)cc1)NC(=O)[C@H](CCC(N)=O)NC(=O)[C@H](CC(=O)O)NC(=O)[C@@H](NC(=O)[C@H](Cc1ccccc1)NC(=O)[C@@H](NC(=O)[C@H](C)NC(=O)[C@H](CC(=O)O)NC(=O)[C@H](CO)NC(=O)[C@@H](N)Cc1c[nH]cn1)C(C)C)[C@@H](C)O)[C@@H](C)O)[C@@H](C)O)C(=O)N[C@@H](CCCCN)C(=O)N[C@@H](CC(N)=O)C(=O)N[C@@H](CCCCN)C(=O)N[C@@H](CCCNC(=N)N)C(=O)N[C@@H](Cc1ccc(O)cc1)C(=O)O", "note": "[Peptide R3P76]", "values": [{"measurement": "EC50", "setting": "PACAP-R2; cAMP SPA, read-out: R2 EC50", "result": "> 150", "unit": "nM"}, {"measurement": "Delta log10 PC100, Mean, Treated", "setting": "[1]", "result": "+0.047"}, {"measurement": "% Inhibition of induced AHR", "setting": "[1]", "result": 100, "unit": "%"}]}
{"compound": "HSDAVFTDNYTRLRKQVAVKKYLQSIKNKRY [Peptide R3P82]", "values": [{"measurement": "EC50", "setting": "PACAP-R2; cAMP SPA, read-out: R2 EC50", "result": 10, "unit": "nM"}, {"measurement": "Delta log10 PC100, Mean, Treated", "setting": "[1]", "result": "−0.067"}, {"measurement": "% Inhibition of induced AHR", "setting": "[1]", "result": 88, "unit": "%"}, {"measurement": "EC50", "setting": "PACAP-R3 [2]; cAMP SPA, CHO cells transfected with PACAP-R3, concentration at which 50% of maximum PACAP27 activity is achieved, NA = no detectable activities, read-out: R3 EC50", "result": 0.4, "unit": "nM"}, {"measurement": "R3 Selectivity", "setting": "PACAP-R3 [2]", "result": 23}]}
{"compound": "HSDAVFTENYTKLRKQLAAKKYLNDLKKGGT [Peptide R3P3]", "values": [{"measurement": "elevation of plasma glucose 30 minutes after IPGTT", "setting": "[3]; 1 nmole/kg s.c., rats, FIG. 7", "result": "significantly reduced"}, {"measurement": "disposal of blood glucose", "setting": "[3]; peptide i.v. followed by glucose load i.p., FIG. 5", "result": "markedly accelerated the disposal of blood glucose"}, {"measurement": "Plasma Glucose (% of Basal) s.c.", "setting": "[3]; plasma glucose after IPGTT (1 g/kg glucose), 1 nmol/kg peptide s.c., % of vehicle", "result": 72, "unit": "%"}, {"measurement": "Plasma Glucose (% of Basal) i.v.", "setting": "[3]; plasma glucose area under the curve after IPGTT (1 g/kg glucose), 1 nmol/kg peptide i.v., % of vehicle", "result": 77, "unit": "%"}, {"measurement": "EC50", "setting": "PACAP-R2; R2 EC50, cAMP SPA", "result": 100, "unit": "nM"}, {"measurement": "Islet Insulin Release (% of Basal)", "setting": "rat islets; 10 nM peptide, 2 hrs, 8 mM glucose, % of [insulin] in 8 mM glucose alone", "result": 275, "unit": "%"}, {"measurement": "release of insulin from isolated rat islets", "setting": "rat islets; 0.1-100 nM, 3 or 8 mM glucose, FIGS. 4A-4B", "result": "significantly enhances the release of insulin"}, {"measurement": "Plasma Insulin (% of Basal)", "setting": "[4]", "result": 361, "unit": "%"}, {"measurement": "EC50", "setting": "PACAP-R3 [2]", "result": 0.75, "unit": "nM"}, {"measurement": "R3 Selectivity", "setting": "PACAP-R3 [2]", "result": 130}]}
{"compound": "Helodermin", "values": [{"measurement": "PACAP-R3 selectivity", "setting": "PACAP-R3 [5]", "result": "~100", "unit": "fold"}]}
